Here are results for 29 compounds from patent US8410106B2, “Hydrazine-substituted anthranilic acid derivatives” (Bayer Cropscience AG, priority 2010, dated 2013).

The subject of series [1] is caterpillars of the army worm (Spodoptera frugiperda). Description: Spodoptera frugiperda test (SPODFR spray treatment). It counts as in vivo. Particulars: foliar, 168 h, read-out: activity (caterpillars killed).
The nature of series [2]: logP determination by HPLC on reversed-phase columns (C 18), EEC Directive 79/831 Annex V.A8. The class given is physicochemical.
Series [3] relates to larvae of the mustard beetle (Phaedon cochleariae). In words: Phaedon test (PHAECO spray treatment). The note with it: in Brassica rapa, foliar, 168 h, read-out: activity (beetle larvae killed).
Series [4] deals with green peach aphid (Myzus persicae). In words: Myzus test (MYZUPE spray treatment). It counts as in vivo. The note with it: foliar, 144 h, read-out: activity (aphids killed). As for the experimental part:
After 6 days the activity is determined, in %.

The mark [5] stands for this setting: HPLC, reversed-phase C 18, table value without method mark, read-out: logP.
[6] abbreviates: application rate 100 g/ha, after 7 days, maize leaf discs, spray.
[7] abbreviates: application rate 100 g/ha, after 6 days, Chinese cabbage leaf discs, spray.

Where two headings read alike, the source gives them in different places.

`COC(=O)N(C)NC(=O)c1cc(C#N)cc(C)c1NC(=O)c1cc(Cn2nc(C(F)F)cc2C(F)F)nn1-c1ncccc1Cl` [Example 63]: the pest or weed control at 100 g/ha in series [1] (in Zea mays), in series [3] and in series [4] (in Brassica rapa) was 100% in each case. In series [2], this compound showed a chromatographic logP of 2.59.
Take `COC(=O)N(C)NC(=O)c1cc(I)cc(C)c1NC(=O)c1cc(Cn2ccc(C(F)(F)F)n2)nn1-c1ncccc1Cl` [Example 17]: the pest or weed control at 100 g/ha in series [1] (in Zea mays), in series [3] and in series [4] (in Brassica rapa) was 100% throughout. The same compound had a chromatographic logP in series [2] of 3.01.
For `COC(=O)N(C)NC(=O)c1cc(Br)cc(C)c1NC(=O)c1cc(Cn2nnc(C(F)F)n2)nn1-c1ncccc1Cl` [Example 27], the pest or weed control at 100 g/ha in series [1] (in Zea mays), in series [3] and in series [4] (in Brassica rapa) was 100% in each case. The compound further showed a chromatographic logP in series [2] of 2.58.
With `COC(=O)N(C)NC(=O)c1cc(Cl)cc(Cl)c1NC(=O)c1cc(Cn2nc(C(F)(F)F)cc2C)nn1-c1ncccc1Cl` [Example 66], the pest or weed control at 100 g/ha in series [1] (in Zea mays), in series [3] and in series [4] (in Brassica rapa) was 100% each time. Moreover, the chromatographic logP in series [2] is 3.1.
`COC(=O)N(C)NC(=O)c1cc(Cl)cc(C)c1NC(=O)c1cc(Cn2nc(C(F)F)cc2C(F)F)nn1-c1ncccc1Cl` [Example 50]: the pest or weed control at 100 g/ha in series [1] (in Zea mays), in series [3] and in series [4] (in Brassica rapa) was 100% in each case. Further, the chromatographic logP in series [2] is 2.91.
For `COC(=O)N(C)NC(=O)c1cc(I)cc(C)c1NC(=O)c1cc(Cn2cnc(C(F)(F)F)n2)nn1-c1ncccc1Cl` [Example 69], the pest or weed control at 100 g/ha in series [1] (in Zea mays), in series [3] and in series [4] (in Brassica rapa) was 100% in each case. The compound also had a chromatographic logP in series [2] of 2.71.
As to `COC(=O)N(C)NC(=O)c1cc(Cl)cc(C)c1NC(=O)c1cc(Cn2ncc(C(F)(F)F)n2)nn1-c1ncccc1Cl` [Example 30], the pest or weed control at 100 g/ha in series [1] (in Zea mays), in series [3] and in series [4] (in Brassica rapa) was 100% throughout. Also, the chromatographic logP in series [2] is 2.94.
As for `COC(=O)N(C)NC(=O)c1cc(Cl)cc(C)c1NC(=O)c1cc(Cn2nnc(C(F)(F)C(F)(F)F)n2)nn1-c1ncccc1Cl` [Example 52], the pest or weed control at 100 g/ha in series [1] (in Zea mays), in series [3] and in series [4] (in Brassica rapa) was 100% in each case. This compound showed a chromatographic logP in series [2] of 3.32.
With `COC(=O)N(C)NC(=O)c1cc(Cl)cc(C)c1NC(=O)c1cc(Cn2nnc(C(F)F)n2)nn1-c1ncccc1Cl` [Example 26], the pest or weed control at 100 g/ha in series [1] (in Zea mays), in series [3] and in series [4] (in Brassica rapa) was 100% each time. Moreover, in series [2], the chromatographic logP came to 2.49.
In the case of `COC(=O)NNC(=O)c1cc(Cl)cc(C)c1NC(=O)c1cc(Cn2nnc(C(F)(F)C(F)(F)C(F)(F)F)n2)nn1-c1ncccc1Cl` [Example 54], the pest or weed control at 100 g/ha was 100% in series [1] (in Zea mays), 100% in series [3] and 90% in series [4] (in Brassica rapa). Further, the chromatographic logP in series [2] (setting [5]) was found to be 3.41.
On to `COC(=O)N(C)NC(=O)c1cc(Cl)cc(C)c1NC(=O)c1cc(Cn2nnnc2C(F)F)nn1-c1ncccc1Cl` [Example 46], for which the pest or weed control at 100 g/ha in series [1] (in Zea mays), in series [3] and in series [4] (in Brassica rapa) was 100% throughout. The same compound registered a chromatographic logP in series [2] of 2.25.
`COC(=O)N(C)NC(=O)c1cc(C#N)cc(C)c1NC(=O)c1cc(Cn2nnc(C(F)(C(F)(F)F)C(F)(F)F)n2)nn1-c1ncccc1Cl` [Example 16]: the pest or weed control at 100 g/ha in series [1] (setting [6]), in series [3] and in series [4] (setting [7]) was 100% each time. In series [2] (setting [5]), the chromatographic logP came out at 3.26.
`COC(=O)N(C)NC(=O)c1cc(Cl)cc(C)c1NC(=O)c1cc(Cn2cc(C(F)(F)F)nn2)nn1-c1ncccc1Cl` [Example 33]: the pest or weed control at 100 g/ha in series [1] (in Zea mays), in series [3] and in series [4] (in Brassica rapa) was 100% in each case. This compound came in with a chromatographic logP in series [2] of 2.61.
As for `COC(=O)N(C)NC(=O)c1cc(Cl)cc(C)c1NC(=O)c1cc(Cn2cc(C3CC3)nn2)nn1-c1ncccc1Cl` [Example 37], the pest or weed control at 100 g/ha in series [1] (in Zea mays), in series [3] and in series [4] (in Brassica rapa) was 100% in each case. Further, the chromatographic logP in series [2] was found to be 2.18.
As to `COC(=O)N(C)NC(=O)c1cc(I)cc(C)c1NC(=O)c1cc(Cn2nnc(C(F)F)n2)nn1-c1ncccc1Cl` [Example 74], the pest or weed control at 100 g/ha in series [1] (in Zea mays), in series [3] and in series [4] (in Brassica rapa) was 100% each time. Also, in series [2], the chromatographic logP turned out to be 2.64.
Turning to `COC(=O)N(C)NC(=O)c1cc(I)cc(C)c1NC(=O)c1cc(Cn2nnc(C(F)(F)F)n2)nn1-c1ncccc1Cl` [Example 51], the pest or weed control at 100 g/ha in series [1] (in Zea mays), in series [3] and in series [4] (in Brassica rapa) was 100% in each case. Besides, in series [2], the chromatographic logP was determined as 3.15.
For the compound `COC(=O)N(C)NC(=O)c1cc(Cl)cc(Cl)c1NC(=O)c1cc(Cn2nc(C(F)(F)F)c(Cl)c2C)nn1-c1ncccc1Cl` [Example 11], the pest or weed control at 100 g/ha in series [1] (in Zea mays) was determined as 100%; in series [3] it was 100%; in series [4] (in Brassica rapa) it was 90%. In series [2], this compound yielded a chromatographic logP of 3.55.
`COC(=O)N(C)NC(=O)c1cc(I)cc(C)c1NC(=O)c1cc(Cn2nnnc2C(F)(F)F)nn1-c1ncccc1Cl` [Example 72]: the pest or weed control at 100 g/ha in series [1] (in Zea mays), in series [3] and in series [4] (in Brassica rapa) was 100% throughout. For the same compound, the chromatographic logP in series [2] was found to be 2.78.
As for `COC(=O)NNC(=O)c1cc(Cl)cc(C)c1NC(=O)c1cc(Cn2nnc(C(F)(F)F)n2)nn1-c1ncccc1Cl` [Example 3], the pest or weed control at 100 g/ha in series [1] (in Zea mays), in series [3] and in series [4] (in Brassica rapa) was 100% throughout. Moreover, in series [2], the chromatographic logP was 2.73.
Consider `COC(=O)N(C)NC(=O)c1cc(C(F)(F)F)cc(C)c1NC(=O)c1cc(Cn2nnc(C(F)(F)F)n2)nn1-c1ncccc1Cl` [Example 60], for which the pest or weed control at 100 g/ha in series [1] (in Zea mays), in series [3] and in series [4] (in Brassica rapa) was 100% each time. The same compound yielded a chromatographic logP in series [2] of 3.17.
With `COC(=O)N(C)NC(=O)c1cc(Cl)cc(C)c1NC(=O)c1cc(Cn2cc([N+](=O)[O-])c(C(F)(F)F)n2)nn1-c1ncccc1Cl` [Example 20], the values for the pest or weed control at 100 g/ha in series [1] (in Zea mays), in series [3] and in series [4] (in Brassica rapa) were 100%, 100% and 90%, respectively. This compound registered a chromatographic logP in series [2] of 3.07.
As to `COC(=O)N(C)NC(=O)c1cc(C(F)(F)F)cc(C)c1NC(=O)c1cc(Cn2nnc(C(F)(F)C(F)(F)F)n2)nn1-c1ncccc1Cl` [Example 61], the results for the pest or weed control at 100 g/ha in series [1] (setting [6]), in series [3] and in series [4] (setting [7]) were 100%, 100% and 90%, respectively. In addition, in series [2] (setting [5]), the chromatographic logP came to 3.55.
`COC(=O)N(C)NC(=O)c1cc(Cl)cc(Cl)c1NC(=O)c1cc(Cn2nnnc2C(F)F)nn1-c1ncccc1Cl` [Example 28]: the pest or weed control at 100 g/ha in series [1] (in Zea mays), in series [3] and in series [4] (in Brassica rapa) was 100% in each case. The chromatographic logP in series [2] came out at 2.27.
Take `COC(=O)N(C)NC(=O)c1cc(C#N)cc(C)c1NC(=O)c1cc(Cn2ncc(C(F)(F)F)n2)nn1-c1ncccc1Cl` [Example 29]: the pest or weed control at 100 g/ha in series [1] (in Zea mays), in series [3] and in series [4] (in Brassica rapa) was 100% throughout. In addition, the chromatographic logP in series [2] stood at 2.62.
Regarding `COC(=O)N(C)NC(=O)c1cc(Cl)cc(C)c1NC(=O)c1cc(Cn2nnc(C(F)(F)F)n2)nn1-c1ncccc1Cl` [Example 5], the pest or weed control at 100 g/ha in series [1] (in Zea mays), in series [3] and in series [4] (in Brassica rapa) was 100% throughout. For the same compound, the chromatographic logP in series [2] turned out to be 2.96.
With `COC(=O)N(C)NC(=O)c1cc(Cl)cc(Cl)c1NC(=O)c1cc(Cn2nc(C(F)(F)F)c(Br)c2C)nn1-c1ncccc1Cl` [Example 12], the pest or weed control at 100 g/ha in series [1] (in Zea mays), in series [3] and in series [4] (in Brassica rapa) was 100% throughout. This compound also had a chromatographic logP in series [2] of 3.57.
Take `COC(=O)N(C)N(C)C(=O)c1cc(Cl)cc(C)c1NC(=O)c1cc(Cn2nnc(C(F)(F)F)n2)nn1-c1ncccc1Cl` [Example 7]: the pest or weed control at 100 g/ha in series [1] (in Zea mays), in series [3] and in series [4] (in Brassica rapa) was 100% in each case. The chromatographic logP in series [2] came to 3.39.
As for `COC(=O)N(C)N(C)C(=O)c1cc(C#N)cc(C)c1NC(=O)c1cc(Cn2nnc(C(F)(C(F)(F)F)C(F)(F)F)n2)nn1-c1ncccc1Cl` [Example 79], the pest or weed control at 100 g/ha in series [1] (setting [6]), in series [3] and in series [4] (setting [7]) was 100% each time. The chromatographic logP in series [2] (setting [5]) is 3.66.
Consider `COC(=O)N(C)NC(=O)c1cc(I)cc(C)c1NC(=O)c1cc(Cn2cnc(C(F)(F)F)c2C(F)(F)F)nn1-c1ncccc1Cl` [Example 49], for which the pest or weed control at 100 g/ha in series [1] (setting [6]), in series [3] and in series [4] (setting [7]) was 100% each time. The chromatographic logP in series [2] (setting [5]) is 3.26.
